According to patent publication US6803378B2, “HIV integrase inhibitors” (Bristol-Myers Squibb Company, priority 2000, dated 2004):

Experiments:
HIV-1 integrase = biological target: T1, HIV-1 integrase (Human immunodeficiency virus type 1 group M subtype B, UniProt P04585); assay: In vitro activity against integrase, Method A (immobilized precleaved substrate DNA, biotinylated target DNA, 96 well plate); type: biochemical; settings: Assay Method A, read-out: Percent inhibition of HIV Integrase at 70 uM
T1 construct: Purified recombinant HIV-1 integrase was incubated with immobilized precleaved substrate DNA
Procedure: (§1) The in vitro activities, against integrase, of compounds of the present invention were measured by one of the following three methods.
In Method A, the in vitro activity against integrase was measured in a manner which was similar to previously disclosed methods (cf. Hazuda, D. J.; Felock, P.; Witmer, M.; Wolfe, A.; Stillmock, K.; Grobler, J. A.; Espeseth, A.; Gabryelski, L.; Schleif, W.; Blau, C.; Miller, M. D. Science, 2000, 287, 646) Purified recombinant HIV-1 integrase was incubated with immobilized precleaved substrate DNA in a 96 well plate for 20 min at 37° C. After the integration complex was formed, compounds at desired concentrations were added to the wells followed by a 10 min incubation at 37° C. Biotinyted Target DNA was then added and the reaction was carried out for an additional 1 hour at 37° C. Wells were then washed thoroughly to remove any free DNA and integration activity was measured by using a commercial kit to quantitate the amount of biotinyted target DNA integrated into the substrate.

HIV Integrase [1] = biological target: T2, HIV Integrase (Human immunodeficiency virus type 1 group M subtype B, UniProt P04585); assay: In vitro activity against integrase, Method B (SPA assay); type: biochemical; settings: read-out: Percent inhibition of HIV Integrase at 70 uM
T2 construct: 0.26 ng of recombinant integrase was then incubated with the beads
Procedure: as §1
(§2) In Method B, the in vitro activity against integrase was measured by binding, for each reaction, 5 pmole of biotin labeled substrate DNA to 100 ug of Streptavidin coated PVT SPA beads (Amersham Pharmacia Biotech). 0.26 ng of recombinant integrase was then incubated with the beads for 90 min at 37° C. Unbound enzyme was removed by washing the complex followed by addition of inhibitors and 0.1 fmol of P33 labeled target DNA. Reaction was stopped by adding EDTA to a final concentration of 10 mM. Samples were counted in TopCountNXT (Packard) and the CPM was used as a measure of integration. Reaction condition was as described in A. Engelman and R. Craigie, J. Virol. 69, 5908-5911 (1995). The sequences of substrate and target DNA were described in Nucleic Acid Research 22, 1121-1122 (1994).

HIV Integrase [2] = biological target: T2, HIV Integrase; assay: In vitro activity against integrase, Method C (electroluminescence, ECL assay); type: biochemical; settings: read-out: Percent inhibition of HIV Integrase at 70 uM
Procedure: as §1, §2
Method C (Electroluminesence Assay):
The ECL assay of Method C is essentially the same as the SPA assay of Method B, except that 0.5 μg of Streptavidin coated magnetic beads and 0.5 pmol Ru labeled target DNA were used for each reaction instead of SPA beads and P33 labeled DNA. The samples were read in a M8 analyzer (IGEN International, Inc).

| Compound | melting point | inhibition at 70 µM (HIV Integrase [2]) [%] | further results |
| --- | --- | --- | --- |
| O=C(O)/C(O)=C/C(=O)N(Cc1ccc(Cl)cc1)Cc1ccc(Cl)c(Cl)c1 | 152 °C (dec.) |  |  |
| CN(Cc1ccccc1Cl)C(=O)/C=C(\O)C(=O)O [Compound 10, 3-[(2-Chloro-benzyl)-methyl-carbamoyl]-2-hydroxy-acrylic acid] | 84 to 86 °C |  | inhibition at 70 µM (HIV-1 integrase): 79% |
| O=C(O)/C(O)=C/C(=O)N(Cc1ccc(F)cc1)Cc1ccc(F)cc1 [Compound 11, 3-[Bis-(4-fluoro-benzyl)-carbamoyl]-2-hydroxy-acrylic acid] | > 147 °C (dec.) |  | inhibition at 70 µM (HIV Integrase [1]): 97% |
| O=C(O)/C(O)=C/C(=O)N(CCCc1ccccc1Cl)Cc1ccc(F)cc1 [Compound 87, 3-[[3-(2-Chloro-phenyl)-propyl]-(4-fluoro-benzyl)-carbamoyl]-2-hydroxy-acrylic acid] |  | 99 |  |
| CCCNC(=O)/C(O)=C/C(=O)N(Cc1ccc(F)cc1)Cc1ccc(F)cc1 [Compound 144, 2-Hydroxy-but-2-enedioic acid 4-[bis-(4-fluoro-benzyl)-amide] 1-propylamide] |  | 83 |  |
| O=C(CCCCCNC(=O)/C(O)=C/C(=O)N(CCCc1ccccc1Cl)Cc1ccc(F)cc1)NS(=O)(=O)c1ccccc1 [Compound 147, 2-Hydroxy-but-2-enedioic acid 1-[(6-benzenesulfonylamino-6-oxo-hexyl)-amide] 4-[[3-(2-chloro-phenyl)-propyl]-(4-fluoro-benzyl)-amide]] |  | 98 |  |
